What was measured:
[1] = system: Kidney Injury Induced by Cisplatin Administration; test: Cisplatin-induced kidney injury in mice, PAS histology of renal cortex; assay type: in vivo
Protocol: Wild-type male mice were used as test animals. The mice had free access to water and standard mouse chow. […] The same amount of physiological saline was intraperitoneally administered to the control group. A sample liquid was prepared by suspending Compound 011 (test compound) in PBS. […] The same amount of PBS was orally administered to the control group. […] Additionally, the mice that were not administered with cisplatin were treated in a similar manner, and the blood and kidneys were collected. The mice were thus divided into four groups. The mice were perfused transcardially with PBS (pH of 7.4). The collected kidneys were sliced, post-fixed in 4% PFA (paraformaldehyde), and embedded in paraffin or frozen in OCT compound to obtain section samples of renal cortex. The section samples of the four groups were stained with PAS (Periodic acid-Schiff) and observed under an optical microscope (400×) (FIG. 1). The renal tubular injury was quantitatively evaluated using PAS-stained section samples. […] The renal tubular injury was defined to be cellular necrosis, tubular dilatation, and cast formation.

[2] = system: Kidney Injury Induced by Cisplatin Administration; test: Plasma creatinine and urea nitrogen in cisplatin-treated mice; assay type: in vivo
Protocol: Wild-type male mice were used as test animals. […] The same amount of physiological saline was intraperitoneally administered to the control group. […] The same amount of PBS was orally administered to the control group. […] Plasma was obtained from the blood collected from the mice to measure the creatinine concentration and the urea nitrogen concentration (n=2 to 4 for each group). The creatinine concentration was measured by using a BioAssay Systems' Creatinine Assay Kit (DICT-500), and the urea nitrogen concentration was measured by using a Wako BUN-test. […] Additionally, in FIG. 3, “Cre” represents the creatinine concentration and “BUN” represents the serum urea nitrogen concentration.

[3] = system: p53-positive cells / p62-positive dots (DNA damage, autophagy substrate); test: p53 and p62 immunostaining of renal cortex after cisplatin administration; assay type: in vivo, mice; conditions: cisplatin 15 mg/kg i.p. plus test compound 10 mg/kg orally
Protocol: The kidneys of mice were collected as in Test Example 1. The kidneys were subjected to autoclaving at 120° C. for 10 minutes in a […] citrate buffer (pH of 6.0) for […] and to blocking with 1.5% bovine serum albumin in PBS for 60 minutes. Subsequently, paraffin embedding was performed to prepare section samples of renal cortex of the four groups.
The sections were incubated overnight at 4° C. with p53 or p62 primary antibodies.
For each group (n=2 to 4), the number of p53-positive cells or p62-positive dots were counted in fields at a magnification of 200× (p53) or 400× (p62) to calculate the average values.

[4] = system: autophagy flux (GFP-LC3 dots per proximal tubule); test: Autophagy flux in kidneys of GFP-LC3 transgenic mice after cisplatin, with or without chloroquine; assay type: in vivo
Protocol: The test animals were 8-week-old male autophagy-monitoring mice (GFP-LC3 transgenic mice). The mice had free access to water and standard mouse chow.
The test compound (compound 011) was suspended in PBS to prepare a sample liquid.
Six hours before anesthetization of the mice, a chloroquine solution was administered intraperitoneally as a lysosomal inhibitor at 50 μg/g body weight. Separately, a group in which the chloroquine solution was not administered was also prepared. The chloroquine solution was prepared by dissolving chloroquine (Sigma-Aldrich) in distilled water at a concentration of 5 mg/mL.
The autophagy flux was evaluated by quantifying GFP-LC3 dots (GFP-positive dots).
The kidney sections were immunostained with LRP2/Megalin (red), which is a marker for proximal tubular cells, and contrast-stained with DAPI (blue).
The number of GFP-LC3 dots (green) per proximal tubule in each group (n=5) was quantified in 10 high-magnification fields (600×), and the average values were used for evaluation.

A549 cells = test: LC3-II Western blotting in A549 cells with or without Bafilomycin A1; assay type: cell-based, human; conditions: 10 μM test compound, 6 hours, Bafilomycin A1 250 nM
Protocol: A549 cells (1.0×10^5 cells/well), i.e., human lung tumor cells, were seeded in a 6-well plate containing DMEM medium and cultured for 1 day, and the cells were washed with PBS.
A DMEM medium containing Bafilomycin Al (final concentration: 250 nM; also referred to as “Baf”) (Baf(+)) and a DMEM medium not containing Baf (Baf(−)) were prepared. Additionally, a Baf-containing DMEM medium with DMSO or Compound 011 (the test compound) and a Baf-free DMEM medium with DMSO or Compound 011 (the test compound) were also prepared, thus preparing a total of six different media. The final concentration of DMSO was 0.1% and the final concentration of the test compound was 10 μM. Separately, an Earle's balanced salt solution (EBSS; starvation) containing Baf and an EBSS not containing Baf were also prepared. 3 mL of one of the six types of media and two types of EBSSs was added to each well containing washed cells, followed by culturing for 6 hours. After washing the cells three times with PBS, RIPA buffer was added at 4° C., and the cells were allowed to stand on ice for 30 minute. The cells were then quickly and carefully collected from the wells. After the cells were collected, centrifugation (15000 rpm, 4° C., 30 min) was performed, and the supernatant was collected to obtain a protein solution. […]

[5] = cisplatin 15 mg/kg i.p. plus test compound 10 mg/kg orally, effect on cisplatin-induced increase
[6] = test compound 10 mg/kg orally, no cisplatin

| Compound | renal tubular injury (PAS-stained renal cortex sections) ([1]; cisplatin 15 mg/kg i.p. plus test compound 10 mg/kg orally for 3 consecutive days, 3 days after cisplatin) | score of renal tubular injury (PAS injury score) ([1]; cisplatin 15 mg/kg i.p. plus test compound 10 mg/kg orally, 10-scale grade) | change in PAS-stained renal cortex versus vehicle administration group ([1]; test compound 10 mg/kg orally for 3 days, no cisplatin) | plasma creatinine concentration [2, 5] | serum urea nitrogen (BUN) concentration [2, 5] | plasma creatinine concentration [2, 6] | serum urea nitrogen (BUN) concentration [2, 6] | number of p53-positive cells [3] | number of p62-positive dots [3] | number of GFP-LC3 dots per proximal tubule ([4]; cisplatin 15 mg/kg i.p. plus test compound 10 mg/kg orally, 2 days after cisplatin, without chloroquine) | number of GFP-LC3 dots per proximal tubule ([4]; cisplatin plus test compound 10 mg/kg orally plus chloroquine 50 μg/g i.p. 6 hours before anesthetization) | LC3-II protein level with Baf treatment relative to without Baf treatment (A549 cells) | degree of the LC3-II increase with Baf treatment compared with starvation (EBSS) (A549 cells) | number of GFP-LC3 dots per proximal tubule ([4]; cisplatin 15 mg/kg i.p. alone, without chloroquine) | number of GFP-LC3 dots per proximal tubule ([4]; cisplatin 15 mg/kg i.p. plus chloroquine on the second day, no test compound) |
| --- | --- | --- | --- | --- | --- | --- | --- | --- | --- | --- | --- | --- | --- | --- | --- |
| O=C(O)c1cnc(N2CCN(c3noc4cccc(C(F)(F)F)c34)CC2)c(Cl)c1 [Compound 011, 5-Chloro-6-(4-(4-(trifluoromethyl)benzo[d]isoxazol-3-yl)piperazin-1-yl)nicotinic acid] | clearly attenuated renal tubular injury caused by cisplatin | clearly attenuated | no apparent change | clearly suppressed | clearly suppressed | little or no change | little or no change | clearly reduced | clearly reduced | a decrease in GFP-LC3 dots | significantly increased | significant increase in LC3-II with the Baf treatment | comparable to that of starvation |  |  |
| N.N.[Cl][Pt][Cl] [cisplatin, reference compound] |  |  |  |  |  |  |  |  |  |  |  |  |  | increased GFP-LC3 dots | no increase in GFP-LC3 dots |

Source: patent US20240307375A1, “PHARMACEUTICAL COMPOSITION FOR PREVENTING AND/OR TREATING KIDNEY INJURY, AND AUTOPHAGY ACTIVATOR” (OSAKA UNIVERSITY, priority 2021, published 2024)
